Source: patent US11697646B2, “Triazole N-linked carbamoyl cyclohexyl acids as LPA antagonists” (BRISTOL-MYERS SQUIBB COMPANY, priority 2017, dated 2023)

The molecules below were run against T1, human LPA1 (Homo sapiens, UniProt Q92633) (assay: LPA1 functional antagonist assay (calcium flux)). Details: CHO cells overexpressing human LPA1; calcium flux induced by 10 nM LPA; read-out: hLPA1 IC50.
T1 construct: expressed in transfected cells; host or cells: Chinese hamster ovary (CHO) cells
Assay type: cell-based
Method: The effectiveness of compounds of the present invention as LPA1 inhibitors can be determined in an LPA1 functional antagonist assay as follows:
The cells were then equilibrated to room temperature for 30 minutes before the assay. […] IC50 values were determined by fitting data to a 4-parameter logistic equation (GraphPad Prism, San Diego Calif.).

T1 sequence (Q92633 whole entry): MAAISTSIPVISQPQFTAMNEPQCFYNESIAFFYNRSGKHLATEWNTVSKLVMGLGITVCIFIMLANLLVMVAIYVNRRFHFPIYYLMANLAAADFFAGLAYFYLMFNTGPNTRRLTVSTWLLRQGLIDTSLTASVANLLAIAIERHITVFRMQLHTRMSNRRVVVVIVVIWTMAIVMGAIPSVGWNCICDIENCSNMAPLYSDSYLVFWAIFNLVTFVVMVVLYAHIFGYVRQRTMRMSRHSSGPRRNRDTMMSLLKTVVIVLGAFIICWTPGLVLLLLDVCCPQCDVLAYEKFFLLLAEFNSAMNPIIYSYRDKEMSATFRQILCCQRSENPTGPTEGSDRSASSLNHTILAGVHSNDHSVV

How did the IC50 turn out when CCCCOC(=O)NCc1c(-c2ccc(O[C@H]3CCC[C@H](C(=O)O)C3)c(C(F)(F)F)n2)nnn1C [Example 94, (1S,3S)-3-((6-(5-(((butoxycarbonyl)amino)methyl)-1-methyl-1H-1,2,3-triazol-4-yl)-2-(trifluoromethyl)pyridin-3-yl)oxy)cyclohexane-1-carboxylic acid] was run?
The IC50 was 0.014 µM.

For Cc1nc(-c2nnn(C)c2NC(=O)OCC(C)F)ccc1O[C@H]1CCC[C@H](C(=O)O)C1 (stereo partly drawn) [Example 143, (1S,3S)-3-((6-(5-(((2-fluoropropoxy)carbonyl)amino)-1-methyl-1H-1,2,3-triazol-4-yl)-2-methylpyridin-3-yl)oxy)cyclohexane-1-carboxylic acid], which IC50 is on record?
The IC50 was 0.478 µM.

How did the IC50 turn out when Cc1nc(-c2nnn(C)c2CNC(=O)OCCC(C)(C)C)ccc1O[C@H]1CCC[C@H](C(=O)O)C1 [Example 37, (1S,3S)-3-((6-(5-((((3,3-dimethylbutoxy)carbonyl)amino)methyl)-1-methyl-1H-1,2,3-triazol-4-yl)-2-methylpyridin-3-yl)oxy)cyclohexanecarboxylic acid] was run?
The IC50 was 0.012 µM.

Cc1nc(-c2nnn(C)c2CN(C)S(=O)(=O)N(C)Cc2ccccc2)ccc1O[C@H]1CCC[C@H](C(=O)O)C1 [Example 228, (1S,3S)-3-((6-(5-(((N-benzyl-N-methyl-sulfamoyl)(methyl)amino)methyl)-1-methyl-1H-1,2,3-triazol-4-yl)-2-methylpyridin-3-yl)oxy)cyclohexane-1-carboxylic acid] was tested. Which IC50 did it give?
Its IC50 is 0.218 µM.

For CCCCOC(=O)NCc1c(-c2ccc(O[C@H]3CCC[C@H](C(=O)O)C3)c(CC)n2)nnn1C [Example 41, (1S,3S)-3-((6-(5-(((butoxycarbonyl)amino)methyl)-1-methyl-1H-1,2,3-triazol-4-yl)-2-ethylpyridin-3-yl)oxy)cyclohexane-1-carboxylic acid], which IC50 is on record?
The IC50 was 0.008 µM.

CCc1nc(-c2nnn(C)c2NC(=O)OCC(C)C)ccc1O[C@H]1CCC[C@H](C(=O)O)C1 [Example 230, (1S,3S)-3-{[2-ethyl-6-(1-methyl-5-{[(2-methylpropoxy)carbonyl]amino}-1H-1,2,3-triazol-4-yl)pyridin-3-yl]oxy}cyclohexane-1-carboxylic acid] was tested. Which IC50 did it give?
The IC50 was 0.017 µM.

Cc1nc(-c2nnn(C)c2NC(=O)O[C@H](C)c2ccccc2)ccc1O[C@H]1CCC[C@H](C(=O)O)C1 [Example 72, (1S,3S)-3-((2-methyl-6-(1-methyl-5-((((R)-1-phenylethoxy)carbonyl)amino)-1H-1,2,3-triazol-4-yl)pyridin-3-yl)oxy)cyclohexane-1-carboxylic acid] was tested. Which IC50 did it give?
The IC50 was 0.026 µM.

For Cc1nc(-c2nnn(C)c2CNC(=O)CC2CCCC2)ccc1O[C@H]1CCC[C@H](C(=O)O)C1 [Example 235, (1S,3S)-3-((6-(5-((2-cyclopentylacetamido)methyl)-1-methyl-1H-1,2,3-triazol-4-yl)-2-methylpyridin-3-yl)oxy)cyclohexanecarboxylic acid], which IC50 is on record?
The IC50 was 0.105 µM.

With CCc1nc(-c2nnn(C)c2NC(=O)OCC2CC2)ccc1O[C@H]1CCC[C@H](C(=O)O)C1 [Example 231, (1S,3S)-3-{[6-(5-{[(cyclopropyl-methoxy)carbonyl}amino}-1-methyl-1H-1,2,3-triazol-4-yl)-2-ethylpyridin-3-yl]oxy}cyclohexane-1-carboxylic acid] as the molecule, how does the IC50 read?
Its IC50 is 0.028 µM.

CCCOC(=O)Nc1c(-c2ccc(O[C@H]3CCC[C@H](C(=O)O)C3)c(CC)n2)nnn1C [Example 233, (1S,3S)-3-[(2-ethyl-6-{1-methyl-5-[(propoxycarbonyl)amino]-1H-1,2,3-triazol-4-yl}pyridin-3-yl)oxy]cyclo-hexane-1-carboxylic acid] was tested. Which IC50 did it give?
Its IC50 is 1.04 µM.

CCC(CC)OC(=O)Nc1c(-c2ccc(O[C@H]3CCC[C@H](C(=O)O)C3)c(C)n2)nnn1C [Example 142, (1S,3S)-3-((2-methyl-6-(1-methyl-5-(((pentan-3-yloxy)carbonyl)amino)-1H-1,2,3-triazol-4-yl)pyridin-3-yl)oxy)cyclohexane-1-carboxylic acid] was tested. Which IC50 did it give?
Its IC50 is 0.03 µM.

CCCCN(C)S(=O)(=O)NCc1c(-c2ccc(O[C@H]3CCC[C@H](C(=O)O)C3)c(C)n2)nnn1C [Example 138, (1S,3S)-3-((6-(5-(((N-butyl-N-methylsulfamoyl)amino)methyl)-1-methyl-1H-1,2,3-triazol-4-yl)-2-methylpyridin-3-yl)oxy)cyclohexane-1-carboxylic acid] was tested. Which IC50 did it give?
Its IC50 is 0.449 µM.

For Cc1nc(-c2nnn(C)c2CNC(=O)N(C)C(C)(C)C)ccc1O[C@H]1CCC[C@H](C(=O)O)C1 [Example 133, (1S,3S)-3-((6-(5-((3-(tert-butyl)-3-methylureido)methyl)-1-methyl-1H-1,2,3-triazol-4-yl)-2-methylpyridin-3-yl)oxy)cyclohexane-1-carboxylic acid], which IC50 is on record?
Its IC50 is 1.09 µM.

Which IC50 does the source give for Cc1nc(-c2nnn(C)c2CNC(=O)N(C)[C@H](C)c2ccccc2)ccc1O[C@H]1CCC[C@H](C(=O)O)C1 [Example 131, (1S,3S)-3-((2-methyl-6-(1-methyl-5-((3-methyl-3-((R)-1-phenylethyl)ureido)methyl)-1H-1,2,3-triazol-4-yl)pyridin-3-yl)oxy)cyclohexane-1-carboxylic acid] here?
Its IC50 is 0.217 µM.

Cc1ccc(OC(=O)NCc2c(-c3ccc(O[C@H]4CCC[C@H](C(=O)O)C4)c(C)n3)nnn2C)cc1 [Example 62, (1S,3S)-3-((2-methyl-6-(1-methyl-5-((((p-tolyloxy)carbonyl)amino)methyl)-1H-1,2,3-triazol-4-yl)pyridin-3-yl)oxy)cyclohexane-1-carboxylic acid] was tested. Which IC50 did it give?
Its IC50 is 0.148 µM.

How did the IC50 turn out when CCCCCOC(=O)NCc1c(-c2ccc(O[C@H]3CCC[C@H](C(=O)O)C3)cn2)nnn1C [Example 27, (1S,3S)-3-((6-(1-methyl-5-((((pentyloxy)carbonyl)amino)methyl)-1H-1,2,3-triazol-4-yl)pyridin-3-yl)oxy)cyclohexane-1-carboxylic acid] was run?
The IC50 was 0.016 µM.

Cc1nc(-c2nnn(C)c2CNC(=O)OC2CC3(CC3)C2)c(F)cc1O[C@H]1CCC[C@H](C(=O)O)C1 [Example 214, (1S,3S)-3-((5-fluoro-2-methyl-6-(1-methyl-5-((((spiro[2.3]hexan-5-yloxy)carbonyl)amino)methyl)-1H-1,2,3-triazol-4-yl)pyridin-3-yl)oxy)cyclohexane-1-carboxylic acid] was tested. Which IC50 did it give?
Its IC50 is 0.129 µM.

CC[C@H](C)COC(=O)N(C)Cc1c(-c2ccc(O[C@H]3CCC[C@H](C(=O)O)C3)c(C)n2)nnn1C [Example 2, (1S,3S)-3-((2-Methyl-6-(1-methyl-5-((methyl(((S)-2-methylbutoxy)carbonyl)amino)methyl)-1H-1,2,3-triazol-4-yl)pyridin-3-yl)oxy)cyclohexanecarboxylic acid] was tested. Which IC50 did it give?
The IC50 was 0.029 µM.

For Cc1nc(-c2nnn(C)c2CNC(=O)O[C@H](C)c2ccccc2)ccc1O[C@H]1CCC[C@H](C(=O)O)C1 [Example 18, (1S,3S)-3-((2-methyl-6-(1-methyl-5-(((((R)-1-phenylethoxy)carbonyl)amino)methyl)-1H-1,2,3-triazol-4-yl)pyridin-3-yl)oxy)cyclohexane-1-carboxylic acid], which IC50 is on record?
The IC50 was 0.012 µM.

How did the IC50 turn out when CCCCCOC(=O)Nc1c(-c2ccc(O[C@H]3CCC[C@H](C(=O)O)C3)cn2)nnn1C [Example 88] was run?
The IC50 was 0.034 µM.

Which IC50 does the source give for Cc1nc(-c2nnn(C)c2NC(=O)N[C@H](C)C2CC2)ccc1O[C@H]1CCC[C@H](C(=O)O)C1 [Example 146, (1S,3S)-3-((6-(5-(3-((R)-1-cyclopropylethyl)ureido)-1-methyl-1H-1,2,3-triazol-4-yl)-2-methylpyridin-3-yl)oxy)cyclohexane-1-carboxylic acid] here?
The IC50 was 0.306 µM.

Cc1nc(-c2nnn(C)c2NC(=O)OC(C)C2CC2)ccc1O[C@H]1CCC[C@H](C(=O)O)C1 (mixture of isomers) [Example 69, (1S,3S)-3-((6-(5-(((1-cyclopropyl-ethoxy)carbonyl)amino)-1-methyl-1H-1,2,3-triazol-4-yl)-2-methyl-pyridin-3-yl)oxy)cyclohexane-1-carboxylic acid] was tested. Which IC50 did it give?
Its IC50 is 0.085 µM.

Same assay, conditions: human LPA1 functional antagonist assay; read-out: hLPA1 IC50

Cc1nc(-c2nnn(C)c2CNC(=O)OCC2CC2(C)C)ccc1O[C@H]1CCC[C@H](C(=O)O)C1 (stereo partly drawn) [Example 164, (1S,3S)-3-((6-(5-(((((2,2-dimethyl-cyclopropyl)methoxy)carbonyl)amino)methyl)-1-methyl-1H-1,2,3-triazol-4-yl)-2-methylpyridin-3-yl)oxy)cyclohexane-1-carboxylic acid] was tested. Which IC50 did it give?
Its IC50 is 0.065 µM.

How did the IC50 turn out when CCC[C@H](C)OC(=O)NCc1c(-c2ccc(O[C@H]3CCC[C@H](C(=O)O)C3)c(C)n2)nnn1C [Example 165, (1S,3S)-3((2-methyl-6-(1-methyl-5-((((((S)-pentan-2-yl)oxy)carbonyl)amino)methyl)-1H-1,2,3-triazol-4-yl)pyridin-3-yl)oxy)cyclohexane-1-carboxylic acid] was run?
Its IC50 is 0.034 µM.

Cc1nc(-c2nnn(C)c2CNC(=O)OC[C@H]2C[C@@H]2C)ccc1O[C@H]1CCC[C@H](C(=O)O)C1 (stereo in doubt) [Example 183, (1S,3S)-3((2-methyl-6-(1-methyl-5-(((((trans-2-methylcyclopropyl)methoxy)carbonyl)amino)methyl)-1H-1,2,3-triazol-4-yl)pyridin-3-yl)oxy)cyclohexane-1-carboxylic acid] was tested. Which IC50 did it give?
The IC50 was 0.032 µM.

For CC(COC(=O)NCc1c(-c2ncc(O[C@H]3CCC[C@H](C(=O)O)C3)cn2)nnn1C)CC(F)(F)F (stereo partly drawn) [Example 154, (1S,3S)-3-((2-(1-methyl-5-((((4,4,4-trifluoro-2-methylbutoxy)carbonyl)amino)methyl)-1H-1,2,3-triazol-4-yl)pyrimidin-5-yl)oxy)cyclohexane-1-carboxylic acid], which IC50 is on record?
Its IC50 is 2.9 µM.

Which IC50 does the source give for Cc1nc(-c2nnn(C)c2CNC(=O)OC2CC(F)(F)C2)ccc1O[C@H]1CCC[C@H](C(=O)O)C1 [Example 178, (1S,3S)-3-((6-(5-((((3,3-difluoro-cyclobutoxy)carbonyl)amino)methyl)-1-methyl-1H-1,2,3-triazol-4-yl)-2-methylpyridin-3-yl)oxy)cyclo-hexane-1-carboxylic acid] here?
The IC50 was 0.102 µM.
